Test results as given in the NIST ThermoML archive (doi:10.1021/je060486k).

Assay: cn = amount concentration of the nth substance listed, in mol/dm3
Conditions: 298.15 K; for surface tension liquid-gas: Wilhelmy plate method; for kinematic viscosity / mass density / speed of sound: 101 kPa, Liquid; for kinematic viscosity: Capillary tube (Ostwald / Ubbelohde) method

CCCCCCCCCC[N+](C)(C)C.[Br-] [N,N,N-trimethyl-1-decanaminium bromide] + O
Conditions | kinematic viscosity [m2/s] | mass density [kg/m3] | speed of sound [m/s] | surface tension liquid-gas [mN/m]
c1 = 0.001 | 8.975e-07 | 997.11 | 1497.3 | 65.4
c1 = 0.005 | 8.99e-07 | 997.25 | 1497.8 | 60.1
c1 = 0.01 | 9.048e-07 | 997.37 | 1498.7 | 57.6
c1 = 0.02 | 9.14e-07 | 997.58 | 1500.8 | 49.7
c1 = 0.03 | 9.224e-07 | 997.85 | 1502.6 | 43.4
c1 = 0.04 | 9.35e-07 | 998.06 | 1504.3 | 38
c1 = 0.05 | 9.449e-07 | 998.33 | 1506.3 | 36.9
c1 = 0.06 | 9.56e-07 | 998.52 | 1508 | 36.1
c1 = 0.07 | 9.642e-07 | 998.79 | 1509.2 | 35.5
c1 = 0.08 | 9.78e-07 | 999 | 1509.7 | 35.2
c1 = 0.1 | 1.002e-06 | 999.37 | 1510.1 | 35.2
c1 = 0.12 | 1.024e-06 | 999.77 | 1510.6 | 35
c1 = 0.15 | 1.062e-06 | 1000.4 | 1511.1 | 35.2
c1 = 0.2 | 1.117e-06 | 1001.22 | 1511.7 | 35
c1 = 0.25 | 1.181e-06 | 1002.09 | 1512.4 | 35.1

CCCCCC[N+](C)(C)C.[Br-] [hexyltrimethylammonium bromide] + O
Conditions | kinematic viscosity [m2/s] | mass density [kg/m3] | speed of sound [m/s] | surface tension liquid-gas [mN/m]
c1 = 0.1 | 9.149e-07 | 1000.32 | 1510.6 | 51.6
c1 = 0.2 | 9.406e-07 | 1003.85 | 1524.9 | 44.3
c1 = 0.3 | 9.727e-07 | 1006.97 | 1537.3 | 41.1
c1 = 0.4 | 1.011e-06 | 1010.42 | 1550.5 | 38.3
c1 = 0.45 | 1.033e-06 | 1012.06 | 1557.7 | 36.8
c1 = 0.5 | 1.056e-06 | 1013.74 | 1562.9 | 35.8
c1 = 0.6 | 1.108e-06 | 1017.19 | 1575.3 | 34
c1 = 0.7 | 1.166e-06 | 1021.02 | 1588.6 | 32.5
c1 = 0.8 | 1.23e-06 | 1024.21 | 1599.1 | 31.2
c1 = 0.9 | 1.301e-06 | 1027.68 | 1610 | 30.5
c1 = 1 | 1.379e-06 | 1031.33 | 1620.6 | 29.9
c1 = 1.1 | 1.463e-06 | 1034.12 | 1628.1 | 29.5
c1 = 1.3 | 1.65e-06 | 1041.07 | 1644.8 | 29.3
c1 = 1.5 | 1.863e-06 | 1047.62 | 1652.1 | 29.1
c1 = 1.7 | 2.101e-06 | 1054.38 | 1660 | 29.1
c1 = 2 | 2.508e-06 | 1064.23 | 1670.3 | 28.9
